These results are taken from patent US10981902B2 (Merck Sharp & Dohme Corp., priority 2017, dated 2021).

The assay has as its target T1, human M4 muscarinic acetylcholine receptor (Homo sapiens, UniProt P08173).
T1 construct: expressed in transfected cells; host or cells: CHO-K1
T1 sequence (P08173 1-479): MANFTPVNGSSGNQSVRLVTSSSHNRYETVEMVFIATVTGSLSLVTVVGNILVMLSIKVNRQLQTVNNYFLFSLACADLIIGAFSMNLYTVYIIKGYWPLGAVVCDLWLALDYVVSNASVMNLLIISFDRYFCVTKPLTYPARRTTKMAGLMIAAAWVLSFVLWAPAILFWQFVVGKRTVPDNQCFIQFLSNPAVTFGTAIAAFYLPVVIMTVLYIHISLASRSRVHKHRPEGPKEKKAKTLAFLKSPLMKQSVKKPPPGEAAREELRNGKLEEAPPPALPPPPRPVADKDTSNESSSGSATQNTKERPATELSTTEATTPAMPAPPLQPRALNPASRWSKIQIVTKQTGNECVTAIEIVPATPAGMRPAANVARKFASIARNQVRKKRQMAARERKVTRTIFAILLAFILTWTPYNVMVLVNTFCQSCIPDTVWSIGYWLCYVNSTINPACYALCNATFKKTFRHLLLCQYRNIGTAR
Nature of the assay: human FLIPR-based M4 PAM assay (calcium mobilization, CHO-K1 cells with human M4 receptor and Gαqi5). It counts as cell-based. To be noted: inflection point (IP) of dose response curve, acetylcholine added at 20% of maximum response, read-out: M4 FLIPPR Hu IP. In outline:
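CHO-K1 cells stably expressing human M4 and Gαqi5, dye-loaded ~1 h at 37 °C, read on FLIPR Tetra. Test compound added at increasing concentrations 4 min before acetylcholine at an EC20 concentration, sometimes followed by an EC70 addition. Dose-response curves fit to a 4-parameter logistic; result is the curve inflection point.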
With `N#Cc1ccc(-c2cnc(CCC(F)(F)C(F)(F)F)o2)c(-c2ccn3ccnc3c2)n1` [Example 109, 6-(imidazo[1,2-a]pyridin-7-yl)-5-(2-(3,3,4,4,4-pentafluorobutyl)oxazol-5-yl) picolinonitrile], the EC50 is 105 nM.
`Cc1nc2cc(-c3nc(C#N)ccc3-c3cnc(CC(C)(C)C(F)(F)F)o3)ccn2n1` [Example 110, 6-(2-methyl-[1,2,4]triazolo [1,5-a]pyridin-7-yl)-5-(2-(3,3,3-trifluoro-2,2-dimethylpropyl)oxazol-5-yl)picolinonitrile]: the EC50 worked out at 118 nM.
The result for `Cc1nc2cc(-c3nc(C#N)ccc3-c3cnc(CC(C)(C)C(F)(F)F)o3)ccc2n1C` [Example 111, 6-(1,2-dimethyl-1H-benzo[d]imidazol-5-yl)-5-(2-(3,3,3-trifluoro-2,2-dimethylpropyl)oxazol-5-yl)picolinonitrile] reads 114 nM; that for `Cc1nc2cc(-c3nc(C#N)ccc3-c3cnc(CCC(C)(F)F)o3)ccn2n1` [Example 112, 5-(2-(3,3-difluorobutyl)oxazol-5-yl)-6-(2-methyl-[1,2,4]triazolo [1,5-a]pyridin-7-yl)picolinonitrile], 182 nM; that for `Cc1nc2cc(-c3nc(C#N)ccc3-c3cnc(CCC(F)(F)F)o3)ccc2n1C` [Example 113, 6-(1,2-dimethyl-1H-benzo[d]imidazol-5-yl)-5-(2-(3,3,3-trifluoropropyl)oxazol-5-yl)picolinonitrile], 118 nM.
The result for `Cn1cnc2cc(-c3nc(C#N)ccc3-c3cnc(CC(C)(C)C(F)(F)F)o3)ccc21` [Example 114, 6-(1-methyl-1H-benzo[d]imidazol-5-yl)-5-(2-(3,3,3-trifluoro-2,2-dimethylpropyl)oxazol-5-yl)picolinonitrile] reads 92 nM.
Take `Cn1cnc2cc(-c3ncccc3-c3cnc(CC(C)(C)C(F)(F)F)o3)ccc21` [Example 115, 5-(2-(1-methyl-1H-benzo[d]imidazol-5-yl)pyridin-3-yl)-2-(3,3,3-trifluoro-2,2-dimethylpropyl) oxazole]: the EC50 was 128 nM.
The result for `Cc1cn2ccc(-c3nc(C#N)ccc3-c3cnc(CCC(C)(C)F)o3)cc2n1` [Example 116, 5-(2-(3-fluoro-3-methylbutyl)oxazol-5-yl)-6-(2-methylimidazo [1,2-a]pyridin-7-yl)picolinonitrile] reads 47 nM; that for `Cc1nc2cc(-c3nc(C#N)ccc3-c3cnc(CCC(C)(C)F)o3)ccc2n1C` [Example 117, 6-(1,2-dimethyl-1H-benzo[d]imidazol-5-yl)-5-(2-(3-fluoro-3-methylbutyl)oxazol-5-yl) picolinonitrile], 60 nM.
